# Results: PubChem BioAssay (NCI)
#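 96-well plates; 48 h exposure; 5 concentrations. Endpoints by linear interpolation between flanking doses. Not reached: highest tested concentration assigned. GI50 is the concentration that inhibits growth by half. TGI is the concentration that stops growth completely.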
# Assays:
# Experiment in all cases: DTP human tumour cell line panel, 48 h
# NCI-H23 lung = test system: NCI-H23 lung
# NCI-H460 lung = test system: NCI-H460 lung
# NCI-H522 lung = test system: NCI-H522 lung
# NCI/ADR-RES ovarian = test system: NCI/ADR-RES ovarian
# OVCAR-3 ovarian = test system: OVCAR-3 ovarian
# OVCAR-4 ovarian = test system: OVCAR-4 ovarian
# OVCAR-5 ovarian = test system: OVCAR-5 ovarian
# OVCAR-8 ovarian = test system: OVCAR-8 ovarian
# PC-3 prostate = test system: PC-3 prostate
# RPMI-8226 leukemia = test system: RPMI-8226 leukemia
# RXF 393 renal = test system: RXF 393 renal
# SF-268 CNS = test system: SF-268 CNS
# SF-295 CNS = test system: SF-295 CNS
# SF-539 CNS = test system: SF-539 CNS
# SK-MEL-2 melanoma = test system: SK-MEL-2 melanoma
# SK-MEL-28 melanoma = test system: SK-MEL-28 melanoma
# SK-MEL-5 melanoma = test system: SK-MEL-5 melanoma
# SK-OV-3 ovarian = test system: SK-OV-3 ovarian
# SN12C renal = test system: SN12C renal
# SNB-19 CNS = test system: SNB-19 CNS
# SNB-75 CNS = test system: SNB-75 CNS
# SR leukemia = test system: SR leukemia
# SW-620 colon = test system: SW-620 colon
# T-47D breast = test system: T-47D breast
# TK-10 renal = test system: TK-10 renal
# U251 CNS = test system: U251 CNS
# UACC-257 melanoma = test system: UACC-257 melanoma
# UACC-62 melanoma = test system: UACC-62 melanoma
# UO-31 renal = test system: UO-31 renal
compound,measurement,setting,value
COc1ccc2c(c1)C(=O)/C(=C/c1cccc(OCC(=O)c3ccc([N+](=O)[O-])cc3)c1)CO2,TGI,NCI-H23 lung,6.33 µM
same,GI50,NCI-H460 lung,3.2 µM
same,TGI,NCI-H460 lung,11.6 µM
same,GI50,NCI-H522 lung,3.5 µM
same,TGI,NCI-H522 lung,9.41 µM
same,GI50,NCI/ADR-RES ovarian,2.03 µM
same,TGI,NCI/ADR-RES ovarian,5.02 µM
same,GI50,OVCAR-3 ovarian,1.94 µM
same,TGI,OVCAR-3 ovarian,3.72 µM
same,GI50,OVCAR-4 ovarian,4.36 µM
same,TGI,OVCAR-4 ovarian,17.2 µM
same,GI50,OVCAR-5 ovarian,2.34 µM
same,TGI,OVCAR-5 ovarian,5.08 µM
same,GI50,OVCAR-8 ovarian,2.85 µM
same,TGI,OVCAR-8 ovarian,9.66 µM
same,GI50,PC-3 prostate,2.13 µM
same,TGI,PC-3 prostate,7.95 µM
same,GI50,RPMI-8226 leukemia,1.13 µM
same,GI50,RXF 393 renal,1.89 µM
same,TGI,RXF 393 renal,4.32 µM
same,GI50,SF-268 CNS,2.7 µM
same,TGI,SF-268 CNS,7.74 µM
same,GI50,SF-295 CNS,2.26 µM
same,TGI,SF-295 CNS,7.1 µM
same,GI50,SF-539 CNS,2.33 µM
same,TGI,SF-539 CNS,6.12 µM
same,GI50,SK-MEL-2 melanoma,1.64 µM
same,TGI,SK-MEL-2 melanoma,4.2 µM
same,GI50,SK-MEL-28 melanoma,1.86 µM
same,TGI,SK-MEL-28 melanoma,3.7 µM
same,GI50,SK-MEL-5 melanoma,2.79 µM
same,TGI,SK-MEL-5 melanoma,8.05 µM
same,GI50,SK-OV-3 ovarian,10.5 µM
same,TGI,SK-OV-3 ovarian,23 µM
same,GI50,SN12C renal,2.92 µM
same,TGI,SN12C renal,11.4 µM
same,GI50,SNB-19 CNS,12.4 µM
same,TGI,SNB-19 CNS,25.4 µM
same,GI50,SNB-75 CNS,1.83 µM
same,TGI,SNB-75 CNS,8.09 µM
same,GI50,SR leukemia,1.15 µM
same,TGI,SR leukemia,12.9 µM
same,GI50,SW-620 colon,1.45 µM
same,TGI,SW-620 colon,2.96 µM
same,GI50,T-47D breast,1.65 µM
same,TGI,T-47D breast,4.54 µM
same,GI50,TK-10 renal,2.97 µM
same,TGI,TK-10 renal,7.49 µM
same,GI50,U251 CNS,1.6 µM
same,TGI,U251 CNS,3.16 µM
same,GI50,UACC-257 melanoma,3.73 µM
same,TGI,UACC-257 melanoma,10.2 µM
same,GI50,UACC-62 melanoma,2.82 µM
same,TGI,UACC-62 melanoma,9.36 µM
same,GI50,UO-31 renal,1.47 µM
same,TGI,UO-31 renal,4.02 µM
